≈ marks a conversion by molar mass, not a printed value.
Assays:
Assay type in all cases: cell-based
[1] = tested on: P. aeruginosa ATCC 27853; experiment: CLSI broth dilution MIC determination; settings: Pseudomonas aeruginosa, ATCC27853; P. aeruginosa ATCC 27853 (MP-3); read-out: MIC
[2] = tested on: A. baumannii ATCC 19606; experiment: CLSI broth dilution MIC determination; settings: Acinetobacter baumannii, ATCC19606; A. baumannii ATCC 19606 (MP-15); read-out: MIC
[3] = tested on: E. faecalis Vancomycin-resistant; experiment: CLSI broth dilution MIC determination; settings: Enterococcus faecalis, E. faecalis Vancomycin-resistant (UNT-039); read-out: MIC
[4] = tested on: E. faecalis ATCC 29212; experiment: CLSI broth dilution MIC determination; settings: Enterococcus faecalis, ATCC29212, E. faecalis ATCC 29212 (MP-24); read-out: MIC
[5] = tested on: K. pneumoniae ATCC 10031; experiment: CLSI broth dilution MIC determination; settings: Klebsiella pneumoniae, ATCC10031, K. pneumoniae ATCC 10031 (MP-14); read-out: MIC
[6] = tested on: S. pyogenes Macrolide-resistant; experiment: CLSI broth dilution MIC determination; settings: Streptococcus pyogenes, S. pyogenes Macrolide-resistant (MP-625 UNT-014); read-out: MIC
[7] = tested on: S. pyogenes ATCC 19615; experiment: CLSI broth dilution MIC determination; settings: Streptococcus pyogenes, ATCC19615, S. pyogenes ATCC 19615 (MP-19); read-out: MIC
[8] = tested on: A. baumannii MP-576 Clinical-MDR; experiment: CLSI broth dilution MIC determination; settings: Acinetobacter baumannii, read-out: MIC
[9] = tested on: P. aeruginosa MP-8 PAO1:mex (mex-oprM-deletion); experiment: CLSI broth dilution MIC determination; settings: Pseudomonas aeruginosa, PAO1
[10] = tested on: S. pneumoniae mef A genotype (second strain so labelled); experiment: CLSI broth dilution MIC determination; settings: Streptococcus pneumoniae, second strain (MP-627 UNT-039), read-out: MIC
Outline: (§1)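 Broth dilution MICs determined by CLSI standard procedures across a strain panel that includes multidrug- and macrolide-resistant strains. Resistance genotypes may be constitutive or inducible.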

[11] = tested on: S. pneumoniae ATCC 49619; experiment: CLSI broth dilution MIC determination; settings: Streptococcus pneumoniae, ATCC49619, S. pneumoniae ATCC 49619 (MP-21); read-out: MIC
Outline: as §1

[12] = tested on: S. aureus MRSA: USA100; experiment: CLSI broth dilution MIC determination; settings: Staphylococcus aureus; S. aureus MRSA: USA100 (MP-618 UNT-096); read-out: MIC
Outline: as §1

[13] = tested on: S. aureus MP-17 ATCCBAA-977 (BAA 977 iErm); experiment: CLSI broth dilution MIC determination; settings: Staphylococcus aureus; S. aureus MP-17, ATCCBAA-977, iErm; read-out: MIC
Outline: as §1

[14] = tested on: S. aureus (MRSA) MP-513 ST-228 cErm (Clinical-cErm); experiment: CLSI broth dilution MIC determination; settings: Staphylococcus aureus, read-out: MIC
Outline: as §1

[15] = tested on: E. coli MP-9 ATCC25922:tolC; experiment: CLSI broth dilution MIC determination; settings: Escherichia coli, ATCC25922
Outline: as §1

[16] = tested on: S. aureus USA600, GISA; experiment: CLSI broth dilution MIC determination; settings: Staphylococcus aureus; S. aureus USA600, GISA (MP-619 UNT-120); read-out: MIC
Outline: as §1

[17] = tested on: S. aureus ATCC 29213; experiment: CLSI broth dilution MIC determination; settings: Staphylococcus aureus, ATCC29213; S. aureus ATCC 29213 (MP-12); read-out: MIC
Outline: as §1

[18] = tested on: E. coli MP-532 clinical-cErmB; experiment: CLSI broth dilution MIC determination; settings: Escherichia coli
Outline: as §1

[19] = tested on: S. pneumoniae mef A genotype (first strain so labelled); experiment: CLSI broth dilution MIC determination; settings: Streptococcus pneumoniae, first strain (MP-626 UNT-038)
Outline: as §1

[20] = tested on: S. aureus erm A genotype; experiment: CLSI broth dilution MIC determination; settings: Staphylococcus aureus; S. aureus erm A genotype (MP-620 UNT-146); read-out: MIC
Outline: as §1

[21] = tested on: S. aureus MRSA: USA300; experiment: CLSI broth dilution MIC determination; settings: Staphylococcus aureus; S. aureus MRSA: USA300 (MP-549, msr(a)); read-out: MIC
Outline: as §1

[22] = tested on: E. coli MP-541 clinical; experiment: CLSI broth dilution MIC determination; settings: Escherichia coli, MP541CLINICAL, read-out: MIC
Outline: as §1

[23] = tested on: E. coli ATCC 25922; experiment: CLSI broth dilution MIC determination; settings: Escherichia coli, ATCC25922, E. coli ATCC 25922 (MP-4); read-out: MIC
Outline: as §1

[24] = tested on: K. pneumoniae MP-548 clinical; experiment: CLSI broth dilution MIC determination; settings: Klebsiella pneumoniae, MP548CLINICAL, read-out: MIC
[25] = tested on: strains of B. subtilis, E. coli, S. aureus, S. pneumoniae, and H. influenzae, including several multidrug-resistant strains; experiment: CLSI broth dilution MIC determination, whole panel of strains; settings: from MIC data, Tables B1-B13
Description: MIC data was collected for the novel macrolides that this platform has produced against over 21 unique strains of B. subtilis, E. coli, S. aureus, S. pneumoniae, and H. influenzae, including several multidrug-resistant strains, with a special focus on macrolide resistant mechanisms (vide supra). Azithromycin (Azithro) and Solithromycin (Solithro) were included as a control macrolides in many cases. CLSI standard procedures for broth dilution MIC determination were used. […] These genotypes can be constitutive or inducible.

[26] = tested on: A. baumannii MP-577 Clinical-AZT low; experiment: CLSI broth dilution MIC determination; settings: Acinetobacter baumannii, read-out: MIC
[27] = tested on: P. aeruginosa MP-7 PAO1; experiment: CLSI broth dilution MIC determination; settings: Pseudomonas aeruginosa, read-out: MIC
[28] = tested on: K. pneumoniae MP-546 Clinical-MDR; experiment: CLSI broth dilution MIC determination; settings: Klebsiella pneumoniae, read-out: MIC

CC[C@H]1OC(=O)[C@@](C)(F)C(=O)[C@H](C)[C@@H](O[C@@H]2OC(C)CC(N(C)C)C2O)[C@](C)(OC)C[C@@H](C)C(=O)[C@H](C)[C@H]2N(CC#CCn3cc(-c4cccc(N)n4)nn3)C(=O)O[C@]12C (stereo partly shown) [FSM-100573]
MIC [1]: 16 µg/mL (≈ 19 µM) | MIC [2]: 2 µg/mL (≈ 2.38 µM) | MIC [3]: 1 µg/mL (≈ 1.19 µM) | MIC [4]: < 0.03 µg/mL | MIC [5]: 2 µg/mL (≈ 2.38 µM) | MIC [6]: < 0.03 µg/mL | MIC [7]: < 0.03 µg/mL | MIC [8]: 64 µg/mL (≈ 76 µM) | MIC [9]: 4 µg/mL (≈ 4.75 µM) | MIC [10]: < 0.03 µg/mL | MIC [11]: < 0.03 µg/mL | MIC [12]: 16 µg/mL (≈ 19 µM) | MIC [13]: 0.06 µg/mL (≈ 0.0713 µM) | MIC [14]: 16 µg/mL (≈ 19 µM) | MIC [15]: 2 µg/mL (≈ 2.38 µM) | MIC [16]: 16 µg/mL (≈ 19 µM) | MIC [17]: 0.06 µg/mL (≈ 0.0713 µM) | MIC [18]: 64 µg/mL (≈ 76 µM) | MIC [19]: < 0.03 µg/mL | MIC [20]: 16 µg/mL (≈ 19 µM) | MIC [21]: 0.06 µg/mL (≈ 0.0713 µM) | MIC [22]: 16 µg/mL (≈ 19 µM) | MIC [23]: 8 µg/mL (≈ 9.5 µM) | MIC [24]: 32 µg/mL (≈ 38 µM) | potency compared with solithromycin [25]: even more potent | MIC [26]: 16 µg/mL (≈ 19 µM) | MIC [27]: 32 µg/mL (≈ 38 µM) | MIC [28]: 64 µg/mL (≈ 76 µM)
